The record followed here is PubChem BioAssay AID248 (DTP/NCI, 2004).

This assay deals with L1210 leukemia ip in BDF1 mice, survival T/C. Kind of assay: NCI In Vivo Anticancer Drug Screen. Data for tumor model L1210 Leukemia (intraperitoneal) in B6D2F1 (BDF1) mice. To be noted: endpoint: mean survival time, higher = longer survival. The gist of the method:
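Tumor was transplanted into mice, which were then dosed with test compound or vehicle alone. Survival was recorded for each group, and the treated figure was expressed relative to the control figure.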

Setting [1] is: dose: 100.0 mg/kg/injection, schedule: Q04DX003 (ip), vehicle: Klucel (hydroxypropylcellulose) (HPC).
The mark [2] stands for this setting: dose: 200.0 mg/kg/injection, schedule: Q04DX003 (ip), vehicle: Klucel (hydroxypropylcellulose) (HPC).
Setting [3] is: dose: 400.0 mg/kg/injection, schedule: Q04DX003 (ip), vehicle: Klucel (hydroxypropylcellulose) (HPC).
Where [4] appears, read: dose: 50.0 mg/kg/injection, schedule: Q01DX001 (ip), vehicle: carboxymethylcellulose (CMC).
Where [5] appears, read: dose: 100.0 mg/kg/injection, schedule: Q01DX001 (ip), vehicle: carboxymethylcellulose (CMC).
The mark [6] stands for this setting: dose: 200.0 mg/kg/injection, schedule: Q01DX001 (ip), vehicle: carboxymethylcellulose (CMC).
Setting [7] is: dose: 100.0 mg/kg/injection, schedule: Q01DX001 (ip), vehicle: saline.
The mark [8] stands for this setting: dose: 200.0 mg/kg/injection, schedule: Q01DX001 (ip), vehicle: saline.
Where [9] appears, read: dose: 400.0 mg/kg/injection, schedule: Q01DX001 (ip), vehicle: saline.
Setting [10] is: dose: 50.0 mg/kg/injection, schedule: Q01DX001 (ip), vehicle: saline.

Where “and” joins values, the source holds several entries; their conditions need not be identical. Equal entries are not always repeated. Inconclusive results and toxic doses are left out.

As to `O=[N+]([O-])c1ccccc1/C=C/C=N/N=C/c1ccccc1O`, the T/C by setting is: (dose: 75.0 mg/kg/injection, schedule: Q01DX001 (ip), vehicle: other) 94 % of control; (dose: 150.0 mg/kg/injection, schedule: Q01DX001 (ip), vehicle: other) 95 % of control; (dose: 300.0 mg/kg/injection, schedule: Q01DX001 (ip), vehicle: other) 88 % of control.
With `CCCCNC(=O)Nc1ccccc1`, the T/C is, setting by setting: under setting [1], 100 % of control; under setting [2], 112 % of control; under setting [3], 96 % of control.
On to `CC(=O)c1cc(C)c(O)c(C)c1`, for which the T/C by setting is: under setting [4], 107 % of control; under setting [5], 89 % of control; under setting [6], 94 % of control; (dose: 400.0 mg/kg/injection, schedule: Q01DX001 (ip), vehicle: carboxymethylcellulose (CMC)) 91 % of control.
With `Cc1c(C)c(N)c(C)c(C)c1N`, the T/C was 94 % of control (dose: 6.25 mg/kg/injection, schedule: Q01DX009 (ip), vehicle: Klucel (hydroxypropylcellulose) (HPC)); 94 % of control (dose: 12.5 mg/kg/injection, schedule: Q01DX009 (ip), vehicle: Klucel (hydroxypropylcellulose) (HPC)); 101 % of control (dose: 12.5 mg/kg/injection, schedule: Q04DX003 (ip), vehicle: Klucel (hydroxypropylcellulose) (HPC)).
In the case of `Cc1ccc(O)c(C2CC3CCC2C3)c1` (configuration not stated), the T/C by setting is: (dose: 100.0 mg/kg/injection, schedule: Q04DX003 (ip), vehicle: saline + alcohol) 97 % of control; (dose: 200.0 mg/kg/injection, schedule: Q04DX003 (ip), vehicle: saline + alcohol) 92 % of control; (dose: 400.0 mg/kg/injection, schedule: Q04DX003 (ip), vehicle: saline + alcohol) 95 % of control.
For the compound `Sc1ccccc1.[Pb]`, the T/C was 98 % of control (dose: 25.0 mg/kg/injection, schedule: Q01DX009 (ip), vehicle: Klucel (hydroxypropylcellulose) (HPC)); 101 % of control (dose: 50.0 mg/kg/injection, schedule: Q01DX009 (ip), vehicle: Klucel (hydroxypropylcellulose) (HPC)); 92 % of control and 87 % of control (dose: 100.0 mg/kg/injection, schedule: Q01DX009 (ip), vehicle: Klucel (hydroxypropylcellulose) (HPC)).
For `c1ccc(SCc2ccncc2)nc1`, the T/C is 100 % of control under setting [7], 92 % of control under setting [8] and 88 % of control under setting [9].
Take `CCC(C)C(CCCCN1CCCC1)(CNC(=O)CN(CC)CC)c1cccc2ccccc12` (configuration not stated): the T/C was 95 % of control (dose: 12.5 mg/kg/injection, schedule: Q01DX009 (ip), vehicle: saline); 92 % of control (dose: 12.5 mg/kg/injection, schedule: Q04DX003 (ip), vehicle: saline); 101 % of control (dose: 25.0 mg/kg/injection, schedule: Q01DX009 (ip), vehicle: saline); 93 % of control (dose: 25.0 mg/kg/injection, schedule: Q04DX003 (ip), vehicle: saline); 106 % of control (dose: 50.0 mg/kg/injection, schedule: Q01DX009 (ip), vehicle: saline); 92 % of control (dose: 50.0 mg/kg/injection, schedule: Q04DX003 (ip), vehicle: saline).
Take `CCCCCCCCCCCCCCCCC1(c2ccccc2)NC(=O)NC1=O` (configuration not stated): the T/C by setting is: under setting [1], 93 % of control; under setting [2], 95 % of control; under setting [3], 98 % of control.
As for `Nc1nc(=O)n(C2CC(O)C(CO)O2)cc1Br` (configuration not stated), the T/C is, setting by setting: (dose: 20.0 mg/kg/injection, schedule: Q01DX Z (ip), vehicle: carboxymethylcellulose (CMC)) 95 % of control; (dose: 40.0 mg/kg/injection, schedule: Q01DX Z (ip), vehicle: carboxymethylcellulose (CMC)) 101 % of control; under setting [10], 109 % of control; (dose: 80.0 mg/kg/injection, schedule: Q01DX Z (ip), vehicle: carboxymethylcellulose (CMC)) 101 % of control; under setting [7], 105 % of control; (dose: 160.0 mg/kg/injection, schedule: Q01DX Z (ip), vehicle: carboxymethylcellulose (CMC)) 106 % of control. The T/C is 111 % of control under setting [8] and 117 % of control under setting [9].
Take `O=C(O)c1ccncc1C(=O)O`: the T/C is, setting by setting: under setting [4], 87 % of control; under setting [5], 90 % of control; under setting [6], 87 % of control.
Turning to `OCC(O)C(O)C(O)C(O)C(c1ccc(F)cc1)c1ccc(F)cc1` (configuration not stated), the T/C under setting [10] was 98 % of control; the T/C under setting [7] is 106 % of control and 102 % of control; the T/C under setting [8] is 101 % of control; the T/C under setting [9] was 93 % of control.
As for `C=C(Cl)CNC(=O)c1ccc([N+](=O)[O-])cc1`, the T/C reads like this: under setting [1], 98 % of control; under setting [2], 104 % of control.
Consider `O=NN(CCF)C(=O)NC1CCSCC1`, for which the T/C is 334 % of control (dose: 24.0 mg/kg/injection, schedule: Q01DX001 (ip), vehicle: other); 344 % of control (dose: 36.0 mg/kg/injection, schedule: Q01DX001 (ip), vehicle: other); 344 % of control (dose: 54.0 mg/kg/injection, schedule: Q01DX001 (ip), vehicle: other).
As for `COC(=O)C1C(c2ccc(-c3ccccc3)cc2)N1C1CCCCC1` (configuration not stated), the T/C reads like this: (dose: 100.0 mg/kg/injection, schedule: Q01DX001 (ip), vehicle: Klucel (hydroxypropylcellulose) (HPC)) 96 % of control; under setting [1], 104 % of control; (dose: 200.0 mg/kg/injection, schedule: Q01DX001 (ip), vehicle: Klucel (hydroxypropylcellulose) (HPC)) 95 % of control; under setting [2], 107 % of control; (dose: 400.0 mg/kg/injection, schedule: Q01DX001 (ip), vehicle: Klucel (hydroxypropylcellulose) (HPC)) 93 % of control; under setting [3], 98 % of control.
Regarding `Nc1nncc(-c2cnnc(N)n2)n1`, the T/C reads like this: (dose: 50.0 mg/kg/injection, schedule: Q04DX002 (ip), vehicle: Klucel (hydroxypropylcellulose) (HPC)) 111 % of control; (dose: 100.0 mg/kg/injection, schedule: Q04DX002 (ip), vehicle: Klucel (hydroxypropylcellulose) (HPC)) 104 % of control; (dose: 200.0 mg/kg/injection, schedule: Q04DX002 (ip), vehicle: Klucel (hydroxypropylcellulose) (HPC)) 111 % of control.
As to `CCCCCCCCCCCNC(=O)CCl`, the T/C is, setting by setting: (dose: 75.0 mg/kg/injection, schedule: Q04DX003 (ip), vehicle: Klucel (hydroxypropylcellulose) (HPC)) 91 % of control; (dose: 150.0 mg/kg/injection, schedule: Q04DX003 (ip), vehicle: Klucel (hydroxypropylcellulose) (HPC)) 92 % of control; (dose: 300.0 mg/kg/injection, schedule: Q04DX003 (ip), vehicle: Klucel (hydroxypropylcellulose) (HPC)) 89 % of control.
For `COc1ccc(-c2sc(/N=C/c3cc(Br)cc(Br)c3O)c(C#N)c2C)cc1OC`, the T/C was 89 % of control (dose: 100.0 mg/kg/injection, schedule: Q01DX001 (ip), vehicle: saline with Tween-80); 93 % of control (dose: 100.0 mg/kg/injection, schedule: Q04DX003 (ip), vehicle: saline with Tween-80); 91 % of control (dose: 200.0 mg/kg/injection, schedule: Q01DX001 (ip), vehicle: saline with Tween-80); 98 % of control and 90 % of control (dose: 200.0 mg/kg/injection, schedule: Q04DX003 (ip), vehicle: saline with Tween-80); 90 % of control (dose: 400.0 mg/kg/injection, schedule: Q04DX003 (ip), vehicle: saline with Tween-80).
For `Nc1nc(N)c2cc(CNc3ccc(C(=O)NC(CC(=O)O)C(=O)O)c(Cl)c3)ccc2n1` (configuration not stated), the T/C by setting is: (dose: 1.8 mg/kg/injection, schedule: Q01DX009 (ip), vehicle: saline with Tween-80) 152 % of control; (dose: 1.8 mg/kg/injection, schedule: Q01DX009 (ip), vehicle: saline) 157 % of control; (dose: 2.7 mg/kg/injection, schedule: Q01DX009 (ip), vehicle: saline with Tween-80) 178 % of control; (dose: 2.7 mg/kg/injection, schedule: Q01DX009 (ip), vehicle: saline) 162 % of control and 180 % of control; (dose: 9.0 mg/kg/injection, schedule: Q01DX009 (ip), vehicle: saline) 92 % of control; (dose: 30.0 micrograms/kg/injection, schedule: Q01DX009 (ip), vehicle: saline with Tween-80) 95 % of control. The T/C by setting is: (dose: 44.0 micrograms/kg/injection, schedule: Q01DX009 (ip), vehicle: saline with Tween-80) 107 % of control; (dose: 67.0 micrograms/kg/injection, schedule: Q01DX009 (ip), vehicle: saline with Tween-80) 95 % of control; (dose: 100.0 micrograms/kg/injection, schedule: Q01DX009 (ip), vehicle: saline with Tween-80) 95 % of control.
